Measurements from patent US20110319484A1, “NEUROPROTECTIVE COMPOUNDS” (Parque Tecnologico de Ciencias de la Salud, priority 2009, published 2011).

How the values were obtained:
[1] = tested on: human neuroblastoma SK-N-MC cells; assay: Inhibition of ROS production induced by xanthine/xanthine oxidase (H2DCFDA probe, LDH-normalized); type: cell-based; settings: XXO 10 μM-100 mU/ml, 3 h, at 10 μg/ml, inhibition observed at 10 and 20 μg/ml, read-out: maximum inhibition of ROS production relating to XXO
Description: The assay was performed on human neuroblastoma SK-N-MC cells in culture from the American Type Culture Collection (ATCC) (HTB-10), in all cases strict rules of sterility were followed and the manipulation was performed in class II biological safety cabinets following European standard EN 12469. The cells were maintained in Minimum Essential Medium Eagle (MEM) culture medium supplemented with 1 mM sodium pyruvate, 2 mM L-glutamine, 0.1 mM non-essential amino acids, 0.05 mg/ml gentamicin and 10% fetal bovine serum.
The inhibition by the NST0003 compound [(1S,3R,7S,8S,8aR)-1,2,3,7,8,8a-hexahydro-3,7-dimethyl-8-[2-[(2R,4R)-tetrahydro-4-hydroxy-6-oxo-2H-pyran-2-yl]ethyl-1-naphthalenyl propanoate] on the production of reactive oxygen species (ROS) in the SK-N-MC cells, was analyzed. […]
The cells were incubated (at 37° C. and 5% CO2) with these treatments for 3 h, after which time they were washed with HKRB buffer (20 mM HEPES, 103 mM NaCl, 4.77 mM KCl, 0.5 mM CaCl2, 1.2 mM MgCl2, 1.2 mM KH2PO4, 25 mM […], 15 mM glucose; at pH 7.3) after which the 2′,7′-dichlorodihydrofluorescein diacetate (H2DCFDA) probe was added at 30 μM diluted in HKRB buffer and it was incubated for another 2 hours in the same conditions. The reading of the plate was taken in a fluorometer at the conditions of 485 nm for excitation and 538 nm for emission. […]

SK-N-MC cells = assay: Inhibition of camptothecin-induced apoptosis by flow cytometry (propidium iodide, sub-G1); type: cell-based, human; settings: Homo sapiens, camptothecin 50 μM, 6 h, at 4 μg/ml, read-out: maximum inhibition of apoptosis relating to apoptosis caused by camptothecin (flow cytometry)
Description: To that end, the inhibition caused by the NST0005 compound of apoptosis caused by the treatment with camptothecin (Campt) was analyzed. The SK-N-MC cells, not exceeding 15 passages, were seeded on 6-well plates treated for adherent cells with a cell concentration of 8×10^5 cells/well; 2 wells of the plate were seeded for each condition of the assay.
After 24 h of cell incubation at 37° C. and 5% CO2 the cell treatments were performed with 2 ml of total volume for the following conditions: (i), control (culture medium); (ii), camptothecin [50 μM]; (iii) camptothecin [50 μM] and Z-VAD-fmk [50 μM] (Alexis), as positive control of inhibition; and (iv), 50 μM camptothecin with NST0005 at different concentrations [4, 10, 40 and 100 μg/ml].
The cells were incubated (at 37° C. and 5% CO2) with these treatments for 6 h, after which time they were pooled together with their culture medium and centrifuged at 300×g for 5 minutes. The medium was removed, a washing was performed with phosphate buffered saline (PBS) and they were fixed for 2 minutes with 500 μl of 70% ethanol at −20° C. […] After this time, they were analyzed by flow cytometry, comparing the fluorescence of the propidium iodine against the amount of DNA. The percentage of apoptosis was measured on the sub-G1 region of each of the conditions. […]

[2] = tested on: human neuroblastoma SK-N-MC cells; assay: Protection against neuronal death induced by oxidative stress (XXO), WST-1 test; type: cell-based; settings: XXO 10 μM-60 mU/ml, 22 h, at 10 μg/ml, protection at 4, 10 and 20 μg/ml
Description: To perform this assay, the inhibition caused by the NST0005 compound [(1S,3R,7S,8S,8aR)-1,2,3,7,8,8a-hexahydro-3,7-dimethyl-8-[2-[(2R,4R)-tetrahydro-4-hydroxy-6-oxo-2H-pyran-2-yl]ethyl-1-naphthalenyl 2,2-dimethyl-propanoate] of cell death caused by the treatment with xanthine/xanthine oxidase (XXO) which, as has already been mentioned, generates oxidative damage (produces free radicals such as hydrogen peroxide, superoxide anion, hydroxyl radical) which triggers cell death, was analyzed. These cells [SK-N-MC], not exceeding 15 passages, were seeded on 96-well plates treated for adherent cells with a cell concentration of 5×10^4 cells/well; 3 wells of the plate were seeded for each condition of the assay.
After 24 h of cell incubation at 37° C. and 5% CO2, the cell treatments were performed with 100 μl of total volume for the following conditions: (i), control (culture medium); (ii), xanthine/xanthine oxidase (XXO) [10 μM-60 mU/ml]; and (iii), XXO [10 μM-60 mU/ml] and NST0005 at different concentrations [4, 10, 20 and 40 μg/ml].
The cells were incubated (at 37° C. and 5% CO2) with these treatments for 22 h, after which time the WST-1 reagent (Roche) was added. […] The formazan which is formed can be detected colorimetrically since it has an absorbance of 440 nm. The reading was taken in a plate reader at 440 nm 2 hours after adding the reagent. […]

SMILES: CCC(=O)O[C@H]1C[C@@H](C)C=C2C=C[C@H](C)[C@H](CC[C@@H]3C[C@@H](O)CC(=O)O3)[C@H]21 [NST0003, (1S,3R,7S,8S,8aR)-1,2,3,7,8,8a-hexahydro-3,7-dimethyl-8-[2-[(2R,4R)-tetrahydro-4-hydroxy-6-oxo-2H-pyran-2-yl]ethyl-1-naphthalenyl propanoate]
- inhibition at 10 µg/mL [1]: 33%

SMILES: C[C@H]1C=C2C=C[C@H](C)[C@H](CC[C@@H]3C[C@@H](O)CC(=O)O3)[C@H]2[C@@H](OC(=O)C(C)(C)C)C1 [NST0005]
- inhibition at 4 µg/mL (SK-N-MC cells): 17%
- maximum reduction of the percentage of cell death relating to death caused by XXO [2]: 50%
